# Measurements as given in patent US20230113539A1, “Traditional Chinese medicine for dispersing lung qi and detoxicating” (priority 2020, published 2023).
# Read-outs that look alike come from different tables or passages of the source.
# Key:
# [1] = test system: human coronavirus (HCoV-229E); assay type: in vivo
# [2] = test system: GAS, MTL in mouse serum; assay: Gastrin (GAS) and motilin (MTL) in mouse serum (ELISA), same mouse model; assay type: in vivo, BALB/c mice
# Source text: (§1) 90 Balb/c mice are taken, SPF-grade, half male and half female, and the body weight is 10-12 g. They are randomly divided into a normal control group, a 229E infection group, a cold-damp control group, a disease-syndrome combination model group of epidemic viruses attacking lungs in mice (hereinafter referred to as an epidemic virus attacking lung model group), a chloroquine phosphate positive drug group, and an interferon α2b positive drug group, and high, medium and low dosage groups of the traditional Chinese medicine granules of the present invention, there are 10 mice in each group. Except for the normal control group and the 229E infection group, the other mice are continuously placed in an artificial climate box with a relative humidity of 90±3%, no wind, and a temperature of 4±2° C. every day, and are taken out after 4 hours of stimulation for 7 consecutive days.
# (§2) Except for the normal control group and the cold-damp control group, the other mice are infected with 100 TCID50HCOV-229E virus droplets nasally at 50 μL/mice after mild anesthesia with ether on the 5-th and 6-th days of cold-damp stimulation. The administration of each administration group starts on the day of the first infection, and each dosage group of the traditional Chinese medicine granules of the present invention and the chloroquine phosphate positive drug group are administered by gavage at 0.2 ml/10 g; the normal control group, the cold-damp control group, the 229E infection group, the epidemic virus attacking lung model group are given with normal saline under the same conditions; the interferon α2b positive drug group is inhaled with the original drug solution by atomization, and each time is 20 min. It is administered once a day for 3 consecutive days. On the 4-th day of the infection, autopsy is performed after being weighed, and the following indicators are observed and detected.
# (§3) 2.4.4 Detection of Gastrin (GAS), Motilin (MTL) in Mouse Serum and Inflammatory Factor in Lung Tissue (ELISA Method)
# After dissection, mouse […] is placed at a room temperature for 30 min, and centrifuged at 3000×g for 10 min, and a supernatant is absorbed into a new eppendorf (ep) tube and stored at −20° C. During the detection, it is operated according to kit instructions, and a microplate reader detects each index at 450 nm of the absorbance.
# [3] = test system: inflammatory factors IL-6, IL-10, TNF-α, INF-γ in lung tissue; assay: Inflammatory factor content in lung tissue (ELISA), same mouse model; assay type: in vivo, BALB/c mice
# Source text: as §1, §2, §3
# Lung tissue homogenate sample: after weighing the lung tissue from the mouse, the mouse lung tissue is collected and stored at […]. After weighing 50 mg of the lung tissue and adding 500 μL of normal saline, the tissue is homogenized with an ultrasonic cell disruptor, and centrifuged at […] at 1000 xg for 10 minutes with a lower-temperature high-speed centrifuge. After the supernatant is absorbed, it is separately packaged, and stored in the −80° C. refrigerator for later use. Repeated freezing and thawing is avoided. During the detection, it is operated according to the kit instructions, and the microplate reader detects each index at 450 nm of the absorbance.
# [4] = test system: HCoV-229E nucleic acid; assay: Nucleic acid detection (viral load) in lung tissue (RT-PCR), same mouse model; assay type: in vivo, BALB/c mice
# [5] = test system: peripheral blood T lymphocyte subset and B lymphocyte; assay: Flow cytometry of peripheral blood T lymphocyte subset and B lymphocyte proportion, same mouse model; assay type: in vivo, BALB/c mice
# [6] = interferon α2b 300 million IU, 20 min
# [7] = chloroquine phosphate Id: 0.18 g/kg/d, 2~3: 0.09 g/kg/d
# [8] = chloroquine phosphate Id: 0.18 g/kg/d, 2~3 d: 0.09 g/kg/d
compound,measurement,setting,value
Interferon α2b,Inhibition rate % (of lung index),"[1]; interferon α2b 3 million IU, 20 min",40.38%
same,Lung index (Lung weight/100 g body weight),"[1]; interferon α2b 3 million IU, 20 min, atomization inhalation",0.79 ± 0.11
same,Factor content in serum GAS,[2]; [6],8.94 ± 1.07 pg/mL
same,Factor content in serum MTL,[2]; [6],115.43 ± 7.90 pg/mL
same,Inflammatory factor content in lung tissue TNF-α,[3]; [6],33.86 ± 8.72 pg/mL
same,Inflammatory factor content in lung tissue IL-6,"[3]; interferon α2b, 20 min",199.07 ± 38.37 pg/mL
same,Inflammatory factor content in lung tissue IL-10,"[3]; interferon α2b, 20 min",102.25 ± 58.14 pg/mL
same,Inflammatory factor content in lung tissue INF-γ,"[3]; interferon α2b, 20 min",4.20 ± 3.39 pg/mL
same,Viral load (lung tissue),[4]; [6],63758.38 ± 17530.19
same,CD4+/CD8+ (peripheral blood),[5]; [6],1.92 ± 0.63
same,Percentage of immune cells in peripheral blood CD4+T cell,[5]; [6],35.17 ± 4.24%
same,Percentage of immune cells in peripheral blood CD8+T cell,[5]; [6],19.68 ± 4.53 %
same,Percentage of immune cells in peripheral blood B cell,"[5]; interferon α2b, 20 min",6.40 ± 0.98%
CCN(CC)CCCC(C)Nc1ccnc2cc(Cl)ccc12 (centres unmarked) [Chloroquine phosphate],Inhibition rate % (of lung index),"[1]; chloroquine phosphate Id: 0.18 g/kg/d, 2-3: 0.09 g/kg/d",9.82%
same,Lung index (Lung weight/100 g body weight),"[1]; chloroquine phosphate Id: 0.18 g/kg/d, 2-3: 0.09 g/kg/d, gavage",0.85 ± 0.11
same,Factor content in serum GAS,[2]; [7],8.75 ± 1.41 pg/mL
same,Factor content in serum MTL,[2]; [7],105.69 ± 16.85 pg/mL
same,Inflammatory factor content in lung tissue IL-6,[3]; [8],149.98 ± 29.37 pg/mL
same,Inflammatory factor content in lung tissue IL-10,[3]; [8],52.54 ± 29.40 pg/mL
same,Inflammatory factor content in lung tissue INF-γ,[3]; [8],2.77 ± 3.48 pg/mL
same,Inflammatory factor content in lung tissue TNF-α,[3]; [8],38.33 ± 9.62 pg/mL
same,Viral load (lung tissue),[4]; [8],56027.66 ± 31638.92
same,CD4+/CD8+ (peripheral blood),[5]; [8],1.65 ± 0.23
same,Percentage of immune cells in peripheral blood B cell,[5]; [8],15.72 ± 2.24%
same,Percentage of immune cells in peripheral blood CD4+T cell,[5]; [8],32.47 ± 4.65%
same,Percentage of immune cells in peripheral blood CD8+T cell,[5]; [8],20.03 ± 3.68 %
